Where two headings read alike, the source gives them in different places.
Experiments:
[1] = target: T1, rabbit reticulocyte 15-LO (Oryctolagus cuniculus, UniProt P12530); experiment: Rabbit Reticulocyte 15-LO Assay (h15LO); type: biochemical; details: for IC50: 2U rabbit reticulocyte 15-LO, 174 μM linoleic acid, 15 minutes at 4° C.; for h15LO, value given as bare %: concentration not given
T1 construct: Fifteen-lipoxygenase was obtained from phenylhydrazine-treated rabbits and purified per the method of Rapoport; from tissue; host or cells: reticulocytes of phenylhydrazine-treated rabbits
T1 sequence (P12530 1-663): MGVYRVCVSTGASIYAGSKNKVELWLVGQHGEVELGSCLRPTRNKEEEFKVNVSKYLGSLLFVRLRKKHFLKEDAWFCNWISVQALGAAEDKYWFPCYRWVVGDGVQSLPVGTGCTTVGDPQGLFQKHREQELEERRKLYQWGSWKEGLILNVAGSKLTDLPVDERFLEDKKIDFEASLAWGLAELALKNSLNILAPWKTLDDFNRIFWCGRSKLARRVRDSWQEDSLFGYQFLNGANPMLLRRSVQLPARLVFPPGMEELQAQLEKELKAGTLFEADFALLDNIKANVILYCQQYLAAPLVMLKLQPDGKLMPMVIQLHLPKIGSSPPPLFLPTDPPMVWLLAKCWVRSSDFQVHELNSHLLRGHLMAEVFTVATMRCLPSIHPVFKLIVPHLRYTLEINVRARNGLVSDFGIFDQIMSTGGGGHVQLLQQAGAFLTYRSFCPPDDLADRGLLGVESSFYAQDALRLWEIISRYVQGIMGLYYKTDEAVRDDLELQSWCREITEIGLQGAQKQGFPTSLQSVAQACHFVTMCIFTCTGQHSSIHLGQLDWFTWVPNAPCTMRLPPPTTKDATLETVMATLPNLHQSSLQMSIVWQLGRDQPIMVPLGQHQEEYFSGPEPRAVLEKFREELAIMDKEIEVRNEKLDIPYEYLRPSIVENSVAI
Method in brief: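 Linoleic acid oxidation to 13-HPODE measured at 4° C. over 15 minutes, using 174 μM substrate and 2U enzyme purified from phenylhydrazine-treated rabbits in PBS/0.2% Na cholate. Product peak areas calibrated with authentic 13-HODE; inhibition expressed versus maximal reaction.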

IC50 ([1]; Table 2) [nM]	melting point [°C]	SMILES	further results
20	174 to 175	COc1ccc(C(=O)Nc2ccccc2)cc1NC(=S)Nc1ccc(Cl)c(Cl)c1 [Example 85, 3-[3-(3,4-Dichlorophenyl)-thioureido]-4-methoxy-N-phenyl-benzamide]	–
–	167 to 170	Nc1cc(C(=O)Nc2ccccc2)ccc1F [Example 9, 3-Amino-4-fluoro-N-phenyl-benzamide]	inhibition at 10 µM ([1]; Table 1, read-out: h15LO % Inhibition at 10 μM): 38%
19	189 to 191	COc1ccc(C(=O)Nc2ccc(Cl)c(Cl)c2)cc1NC(=S)Nc1cc(Cl)cc(Cl)c1 [Example 97, N-(3,4-Dichlorophenyl)-3-[3-(3,5-dichlorophenyl)-thioureido]-4-methoxy-benzamide]	–
402	187 to 188	COc1ccc(C(=O)Nc2ccccc2)cc1NS(=O)(=O)c1cccc2cccnc12 [Example 130, 3-(Quinoline-8-sulfonylamino)-4-methoxy-N-phenyl-benzamide]	–
–	173 to 175	COc1ccc(C(=O)Nc2ccccc2)cc1NC(=O)C(O)c1ccccc1 (centres unmarked) [Example 257, 3-(2-Hydroxy-2-phenyl-acetylamino)-4-methoxy-N-phenyl-benzamide]	h15LO, value given as bare % ([1]; Table 2): 61%
48	191 to 193	COc1ccc(C(=O)Nc2ccccc2)cc1NS(=O)(=O)c1ccc(Cl)c(Cl)c1 [Example 136, 3-(3,4-Dichloro-benzenesulfonylamino)-4-methoxy-N-phenyl-benzamide]	–
80	179 to 183	Cc1ccc(NC(=O)c2ccc(O)c(Nc3cc(Cl)cc(Cl)c3)c2)cc1 [Example 58, 3-(3,5-Dichloro-phenylamino)-4-hydroxy-N-(4-methylphenyl)-benzamide]	–
19	178 to 179	COc1ccc(C(=O)Nc2ccccc2)cc1NC(=S)Nc1cccnc1 [Example 81, 4-Methoxy-N-phenyl-3-(3-pyridin-3-yl-thioureido)-benzamide]	–
440	184 to 185	COc1ccc(C(=O)Nc2cccnc2)cc1Nc1cccc(C(F)(F)F)c1 [Example 45, 4-Methoxy-3-(3-trifluoromethyl-phenylamino)-N-(3-pyridyl)-benzamide]	–
49	222 to 228	COc1ccc(C(=O)Nc2ccccc2)cc1NS(=O)(=O)c1cc(Cl)cc(Cl)c1 [Example 118, 3-(3,5-Dichloro-benzenesulfonylamino)-4-methoxy-N-phenyl-benzamide]	–
127	175 to 182	COc1ccc(NC(=O)c2ccc(OC)c(NC(=S)Nc3cc(Cl)cc(Cl)c3)c2)cc1 [Example 79, 3-[3-(3,5-Dichlorophenyl)-thioureido]-4-methoxy-N-(4-methoxy-phenyl)-benzamide]	–
500	174 to 177	O=C(Nc1ccccc1)c1cccc(NC(=S)Nc2cc(Cl)cc(Cl)c2)c1 [Example 70, 3-[3-(3,5-Dichlorophenyl)-thioureido]-N-phenyl-benzamide]	–
–	168 to 171	COc1ccc(C(=O)Nc2ccccc2)cc1NC(=O)CC(=O)OCc1ccccc1 [Example 252, (2-Methoxy-5-phenylcarbamoyl-phenylcarbamoyl)-acetic acid phenylmethyl Ester]	h15LO, value given as bare % ([1]; Table 2): 43%
526	182 to 184	Cc1ccc(C(=O)Nc2ccccc2)cc1NC(=S)Nc1cc(Cl)cc(Cl)c1 [Example 71, 3-[3-(3,5-Dichlorophenyl)-thioureido]-4-methyl-N-phenyl-benzamide]	–
23	160 to 161	COc1ccc(C(=O)Nc2ccccc2)cc1Nc1cccc(C)c1 [Example 32, 3-(3-Methyl-phenylamino)-4-methoxy-N-phenyl-benzamide]	–
–	155 to 162	COc1ccc(C(=O)Nc2cc(C)cc(C)c2)cc1N [Example 11, 3-Amino-4-methoxy-N-(3,5-dimethylphenyl)-benzamide]	IC50 ([1]; Table 1): 390 nM
25	231 to 232	COc1ccc(C(=O)Nc2ccccc2)cc1NS(=O)(=O)c1cccc2c(N(C)C)cccc12 [Example 143, 3-(5-Dimethylaminonaphthalene-1-sulfonylamino)-4-methoxy-N-phenyl-benzamide]	–

IC50 ([1]; Table 2) [nM]	melting point [°C]	SMILES	further results
12	180 to 183	COc1ccc(C(=O)Nc2ccccc2)cc1NS(=O)(=O)c1cccs1 [Example 142, 3-(Thiophene-2-sulfonylamino)-4-methoxy-N-phenyl-benzamide]	–
58	212 to 213	COc1ccc(C(=O)Nc2ccccc2)cc1NS(=O)(=O)c1cccc2ccccc12 [Example 133, 3-(Naphthalene-1-sulfonylamino)-4-methoxy-N-phenyl-benzamide]	–
410	184 to 185	CCOc1ccc(C(=O)Nc2ccccc2)cc1Nc1cccc(C(F)(F)F)c1 [Example 42, 4-Ethoxy-3-(3-trifluoromethyl-phenylamino)-N-phenyl-benzamide]	–
–	151 to 152	CCCCCCCCCCCCS(=O)(=O)Nc1cc(C(=O)Nc2ccc(Cl)c(Cl)c2)ccc1OC [Example 194, 3-(Dodecane-1-sulfonylamino)-4-methoxy-N-(3,4-dichloro-phenyl)-benzamide]	h15LO, value given as bare % ([1]; Table 2): 93.61%
137	175 to 177	CCS(=O)(=O)Nc1cc(C(=O)Nc2ccccc2)ccc1OC [Example 134, 3-Ethanesulfonylamino-4-methoxy-N-phenyl-benzamide]	–
63	216	COc1ccc(C(=O)Nc2ccccc2)cc1NS(=O)(=O)Cc1ccccc1 [Example 135, 3-Phenylmethanesulfonylamino-4-methoxy-N-phenyl-benzamide]	–
–	163 to 165	COc1ccc(S(=O)(=O)Nc2ccccc2)cc1NC(=S)Nc1cc(Cl)cc(Cl)c1 [Example 109, 3-[3-(3,5-Dichlorophenyl)-thioureido]-4-methoxy-N-phenyl-benzenesulfonamide]	inhibition at 10 µM ([1]; 0.25 h, Table 2, read-out: h15LO % @ 10 μM): 26%
846	164 to 165	COc1ccc(C(=O)Nc2ccccc2)cc1NCc1ccccc1 [Example 50, 3-Benzylamino-4-methoxy-N-phenyl-benzamide]	–
13	195 to 196	COc1ccc(C(=O)Nc2ccc(C)c(Cl)c2)cc1NC(=S)Nc1cc(Cl)cc(Cl)c1 [Example 104, N-(3-Chloro-4-methylphenyl)-3-[3-(3,5-dichlorophenyl)-thioureido]-4-methoxy-benzamide]	–
11	172 to 175	CSc1ccc(C(=O)Nc2ccccc2)cc1NC(=S)Nc1cc(Cl)cc(Cl)c1 [Example 106, 3-[3-(3,5-Dichlorophenyl)-thioureido]-4-methylsulfanyl-N-phenyl-benzamide]	–
115	189 to 190	COc1ccc(C(=O)Nc2ccccc2)cc1NS(=O)(=O)c1cc(Cl)sc1Cl [Example 132, 3-(2,5-Dichlorothiophene-3-sulfonylamino)-4-methoxy-N-phenyl-benzamide]	–
17	180 to 185	COc1ccc(C(=O)Nc2ccc(Cl)cc2)cc1NC(=S)Nc1cc(Cl)cc(Cl)c1 [Example 92, N-(4-Chlorophenyl)-3-[3-(3,5-dichlorophenyl)-thioureido]-4-methoxy-benzamide]	–
290	166 to 167	CCc1ccc(C(=O)Nc2ccccc2)cc1NC(=S)Nc1cccc(C(F)(F)F)c1 [Example 110, 4-Ethyl-N-phenyl-3-[3-(3-trifluoromethylphenyl)-thioureido]-benzamide]	–
39	201 to 202	CCOc1ccc(C(=O)Nc2ccccc2)cc1NC(=S)Nc1cc(Cl)cc(Cl)c1 [Example 80, 3-[3-(3,5-Dichlorophenyl)-thioureido]-4-ethoxy-N-phenyl-benzamide]	–
165	186 to 187	COc1ccc(NC(=O)c2ccc(O)c(Nc3cc(Cl)cc(Cl)c3)c2)cc1 [Example 57, 3-(3,5-Dichloro-phenylamino)-4-hydroxy-N-(4-methoxyphenyl)-benzamide]	–
70	174 to 176	COc1ccc(C(=O)Nc2ccccc2)cc1NC(=S)Nc1ccccc1 [Example 62, 4-Methoxy-N-phenyl-3-(3-phenyl-thioureido)-benzamide]	–
582	250 to 252	COc1ccc(C(=O)Nc2ccccc2)cc1NS(=O)(=O)c1cn(C)cn1 [Example 141, 3-(1-Methyl-1H-imidazole-4-sulfonylamino)-4-methoxy-N-phenyl-benzamide]	–

From patent US6528528B2 (Warner-Lambert Company, priority 1997, dated 2003)
